# Measurements from ChEMBL document CHEMBL3045301, “Pharmacophore modeling of some novel indole -diketo acid and coumarin-based derivatives as HIV integrase inhibitors” (Med Chem Res, 2012).
# Molecular target: Human immunodeficiency virus type 1 integrase (Human immunodeficiency virus 1, UniProt Q7ZJM1)
# Assay: Inhibition of Human immunodeficiency virus 1 integrase
# Human immunodeficiency virus type 1 integrase, sequence (Q7ZJM1 whole entry): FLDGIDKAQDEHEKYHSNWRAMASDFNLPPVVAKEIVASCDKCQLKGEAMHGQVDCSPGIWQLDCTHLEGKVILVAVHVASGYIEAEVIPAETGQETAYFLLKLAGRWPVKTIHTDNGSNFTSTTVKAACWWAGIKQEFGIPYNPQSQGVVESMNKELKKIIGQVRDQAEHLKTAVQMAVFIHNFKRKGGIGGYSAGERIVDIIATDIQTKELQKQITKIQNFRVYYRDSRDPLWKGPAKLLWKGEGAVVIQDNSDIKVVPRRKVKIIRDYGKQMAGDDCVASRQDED
row,IC50 [µM],SMILES
1,2,Cn1cc(C(=O)/C=C(\O)C(=O)O)c2ccccc21
2,11,O=c1oc2ccccc2c(O)c1-c1cccc(-c2c(O)c3ccccc3oc2=O)c1
3,20.4,O=c1oc2ccccc2c(O)c1-c1ccccc1-c1c(O)c2ccccc2oc1=O
4,44.9,O=c1oc2cc(O)ccc2c(O)c1Cc1c(O)c2ccc(O)cc2oc1=O
5,2,O=C(O)/C(O)=C/C(=O)c1cc2cc3c(cc2n1Cc1ccccc1)OCO3
6,2,Cn1c(C(=O)/C=C(\O)C(=O)O)cc2cc3c(cc21)OCO3
7,3,Cn1cc(C(=O)/C=C(\O)C(=O)O)c2cc3c(cc21)OCO3
8,12,O=c1oc2ccccc2c(O)c1C(c1ccc(OCc2ccccc2)c(OCc2ccccc2)c1)c1c(O)c2ccccc2oc1=O
9,1.6,CCn1c(C(=O)/C=C(\O)C(=O)O)cc2ccccc21
10,5,CCn1c(C(=O)/C=C(\O)C(=O)O)cc2cc3c(cc21)OCO3
11,1,O=C(O)/C(O)=C/C(=O)c1cc2ccccc2n1Cc1ccccc1
12,3,CCn1cc(C(=O)/C=C(\O)C(=O)O)c2ccccc21
13,3,CCn1cc(C(=O)/C=C(\O)C(=O)O)c2cc3c(cc21)OCO3
14,1.2,O=c1oc2ccccc2c(O)c1C(c1cccc(C(c2c(O)c3ccccc3oc2=O)c2c(O)c3ccccc3oc2=O)c1)c1c(O)c2ccccc2oc1=O
15,6,Cn1c(C(=O)/C=C(\O)C(=O)O)cc2ccccc21
16,69.2,O=c1oc2ccccc2c(O)c1Cc1ccc(Cc2c(O)c3ccccc3oc2=O)cc1

row,SMILES,IC50 [µM]
1,O=c1oc2ccccc2c(O)c1C(c1ccc(O)cc1)c1c(O)c2ccccc2oc1=O,74.1
2,O=c1oc2ccccc2c(O)c1C(c1ccco1)c1c(O)c2ccccc2oc1=O,132
3,O=c1oc2cc(O)ccc2c(O)c1C(c1ccc(CCc2ccccc2)cc1)c1c(O)c2ccc(O)cc2oc1=O,1.8
4,O=C(O)/C(O)=C/C(=O)c1cn(Cc2ccccc2)c2ccccc12,1
5,O=c1oc2ccccc2c(O)c1C(c1ccccc1)c1c(O)c2ccccc2oc1=O,38
6,O=c1oc2cc(O)ccc2c(O)c1C(c1ccccc1)c1c(O)c2ccc(O)cc2oc1=O,22.2
7,CN(C)c1ccc(C(c2c(O)c3ccccc3oc2=O)c2c(O)c3ccccc3oc2=O)cc1,49
8,O=c1oc2cc(O)ccc2c(O)c1C(c1cccnc1)c1c(O)c2ccc(O)cc2oc1=O,25
9,O=c1oc2ccccc2c(O)c1C(c1ccc(-c2ccccc2)cc1)c1c(O)c2ccccc2oc1=O,13
10,O=c1oc2ccccc2c(O)c1C(c1cnc2c(c1)CC=CC2)c1c(O)c2ccccc2oc1=O,23
11,O=c1oc2ccccc2c(O)c1C(c1cccs1)c1c(O)c2ccccc2oc1=O,148
12,O=c1oc2ccccc2c(O)c1C(c1ccc2c(c1)CC=CC2)c1c(O)c2ccccc2oc1=O,16
13,O=c1oc2cc(O)ccc2c(O)c1C(c1ccc2c(c1)CC=CC2)c1c(O)c2ccc(O)cc2oc1=O,3.5
14,O=c1oc2cc(O)ccc2c(O)c1C(c1ccc(C(c2c(O)c3ccc(O)cc3oc2=O)c2c(O)c3ccc(O)cc3oc2=O)cc1)c1c(O)c2ccc(O)cc2oc1=O,3.03
